Source: patent US6287813A, “Antibiotic-based gene regulation system” (Cistronics Cell Technology GmbH, priority 1999, dated 2001)

Experiments:
PIT/PPIR system [1] = target: T1, PIT/PPIR system (Streptomyces coelicolor, UniProt Q9ADN3); assay: SEAP reporter assay, CHO-TWIN clones transfected with pMF172 (PPIR-SEAP); type: cell-based; conditions: for activity at 2 µg/mL / activity at 10 µg/mL: 48 h, CHO-TWIN1108 + pMF172, crossregulation, read-out: SEAP Production (%); for activity at 10 µg/mL: 10 μg/ml
T1 construct: pMF156/pTWIN in CHO cells, PPIR-SEAP or GFP reporter
T1 sequence (Q9ADN3 1-252): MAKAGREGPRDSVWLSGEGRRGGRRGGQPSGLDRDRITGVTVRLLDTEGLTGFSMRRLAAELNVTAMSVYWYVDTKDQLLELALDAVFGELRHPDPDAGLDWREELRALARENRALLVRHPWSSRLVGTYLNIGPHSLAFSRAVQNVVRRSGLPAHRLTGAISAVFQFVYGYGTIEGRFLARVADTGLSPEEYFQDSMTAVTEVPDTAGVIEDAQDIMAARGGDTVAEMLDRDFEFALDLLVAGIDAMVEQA
Excerpt: (§1) pTWIN contains both PIT and tTA in a PSV40 -driven dicistronic configuration. For construction of pTWIN, PIT was first transferred from pMF156 as an EcoRI/HindIII fragment to the corresponding sites of pSBC-1 (EcoRI/HindIII; resulting in pMF167) before the PIT expression unit could be fused to the tTA expression unit contained on pSBC2-tTA (Fussenegger et al., 1997, supra) via SspI/NotI sites. Thus, pTWIN contains the dicistronic PSV40 -PIT-IRES-tTA-pA expression cassette.
(§2) Chinese hamster ovary cells (CHO-K1, ATCC: CCL 61), Baby hamster kidney cells (BHK-21, ATCC: CRL-8544), and HeLa cells (ATCC: CRL-7923) as well as stable cell lines CHO-PIT1, CHO-PIT2, CHO-TWIN195, CHO-TWIN1108 and CHO-PIT1-SEAP were cultured as described before (Fussenegger et al., 1998, Nat. Biotechnol. 16,468-472) in the presence of appropriate antibiotics: G418 400 μg/ml; zeocin 100 μg/ml. Optimized CaPO4 protocols were used for high efficiency transient transfection of all cell lines (id). Transient transfected cells were routinely analyzed after 48 h for GFP or SEAP expression using fluorescence microscopy and p-nitrophenolphosphate-based light absorbance timecourse, respectively, as described before (Fussenegger et al., 1998, Nat. Biotechnol. 16, 468-472; Berger et al., 1988, Gene 66, 1-10 b). For construction of stable CHO-PIT and CHO-TWIN cell lines, CHO-K1 was cotransfected either with pMF156 or pTWIN1 and pSV2neo carrying the G418 resistance gene. CHO-PIT1-SEAP was constructed by cotransfection of pMF172 and pZeoSV2 (Invitrogen). For assessment of dose-response characteristics of PPIR -regulated gene expression, CHO-PIT1-SEAP were cultured at cell densities of 150,000/ml for 48 at various PI concentrations. The mixed populations were cloned using FACS-mediated single-cell-sorting (FACStar^Plus; Beckton Dickinson). Gel retardation assay were performed as described (Salah-Bey et al., 1995, supra) using Pip purified from an overproducing strain of E. coli. Pip (0.02 pmol) was titrated with a range of antibiotic concentrations in a reaction volume of 20 μl. Protein solutions were pre-incubated at room temperature for 15 min. in the absence or presence of PI or its derivative quinupristin in a buffer containing 10 mM Tris (pH 7.8), 10 mM MgCl2, 300 mM NaCl, 2 mM DTT and 10% glycerol. An EcoRI-HindII PPTR fragment (0.02 pmol) containing three Pip binding sites (radiolabelled using α-^32 P)dATP was added and incubated for 15 min. To minimize nonspecific protein binding and increase protein stability, 2 μg of poly dIdC and 20 μg BSA were included in the incubation mix. Protein-DNA complexes were separated on 5% polyacrylamide,TBE gels and visualized by autoradiography.
(§3) CHO-TWIN195 and CHO-TWIN1108 were transfected under identical conditions with the isogenic plasmids containing the SEAP gene under control of the tTA-activated promoter PhCMV*-1 (pMF111) or the PIT-activated promoter PPIR (pMF172). Transfected cells were grown for 48 h in the presence or absence of either antibiotic prior to assay of SEAP activity.
(§4) Table 6: Comparison of the regulation performance of streptogramin- (PI and virginiamycin; VIR) and tetracycline-based gene regulation systems. The two cell clones CHO-TWIN195 and CHO-TWIN1108 containing both pristinamycin- and tetracycline-dependent transactivators were transfected with either the streptogramin-responsive or the TET-responsive SEAP reporter plasmids pMF172 (PPIR -SEAP) and pMF111 (PhCMV*-1 -SEAP), respectively, and the relative SEAP production was assessed. SEAP production values are normalized by SEAP activities under the antibiotic-free, active promoter conditions as follows: pMF172 in CHO-TWIN195:1.7 mU/ml; in CHO-TWIN1108 : 1.8 mU/ml. pMF111 in CHO-TWIN195 : 18.6 mU/ml; in CHO-TWIN1108 : 19.2 mU/ml.
(§5) Table 7: Compatibility of the streptogramin- and tetracycline-based gene regulation systems. Crossregulation of pristinamycin (PI) and the tetracyclines doxycycline (DOX) and tetracycline (TET). […]

Pip/PPTR = target: T2, Pip/PPTR (Streptomyces coelicolor, UniProt Q9ADN3); assay: Gel retardation assay of Pip/PPTR interaction; type: binding; conditions: Pip 0.2 pmol titrated with 50 pmol to 0.01 pmol antibiotic
T2 construct: gel retardation with ptr promoter DNA (PPTR) of S. pristinaespiralis
T2 sequence (Q9ADN3 1-252): T1 sequence (Q9ADN3 1-252)
Excerpt: FIG. 1: Gel retardation assay showing Pip/PPTR interaction. PPTR of S. pristinaespiralis contains 3 dyad symmetrical binding sites (lane A; PPTR in the absence of Pip) all of which are saturated at relatively large amounts of purified Pip (0.4 pmol; […]) resulting in a single shifted band. Smaller amounts of Pip (0.02 pmol) presented an intermediate situation in which all possible permutations of site occupancy are represented in three distinct retarded bands (lane C). Pip (0.2 pmol lanes D-M) was titrated with a range of PI from 50 pmol to 0.01 pmol (lanes D-H; D: 50 pmol; E: 10 pmol; F: 1 pmol; G: 0.1 pmol; H: 0.01 pmol). […]
Chinese hamster ovary cells (CHO-K1, ATCC: CCL 61), Baby hamster kidney cells (BHK-21, ATCC: CRL-8544), and HeLa cells (ATCC: CRL-7923) as well as stable cell lines CHO-PIT1, CHO-PIT2, CHO-TWIN195, CHO-TWIN1108 and CHO-PIT1-SEAP were cultured as described before (Fussenegger et al., 1998, Nat. Biotechnol. 16,468-472) in the presence of appropriate antibiotics: G418 400 μg/ml; zeocin 100 μg/ml. […] Transient transfected cells were routinely analyzed after 48 h for GFP or SEAP expression using fluorescence microscopy and p-nitrophenolphosphate-based light absorbance timecourse, respectively, as described before (Fussenegger et al., 1998, Nat. Biotechnol. 16, 468-472; Berger et al., 1988, Gene 66, 1-10 b). […]

PIT/PPIR system [2] = target: T1, PIT/PPIR system; assay: SEAP reporter assay, CHO-K1 cotransfected with pMF156 (PIT) and pMF172 (PPIR-SEAP); type: cell-based
Procedure: PIT, the fusion protein of Pip and the VP16 C-terminal transactivation domain of Herpes simplex (Triezenberg et al., 1988, Genes Dev. 2, 718-729) was constructed by amplifying the S. coelicolor Pip from pGemT::Epip4 with oligos:
as §2
Five different sources of pristinamycin were used: The two therapeutic forms Pyostacin™ and Synercid™, pristinamycin discs, and the single compounds pristinamycin I (PI) and pristinamycin II (PII). Pyostacin™ pills (500 mg) were ground in a mortar and solubilized in DMSO or water at a stock concentration of 50 mg/ml. Synercid™ (RP 59500; Lot Nr. CB06253) was provided by Aventis in injection-ready vials containing 500 mg lyophilized antibiotic which was reconstituted in 5 ml of 5% glucose solution and frozen at -20° C. Individual pristinamycin compounds PI and PII (identical to virginiamycin M1 (VM1); Sigma ref. V2753) were solubilized in DMSO at a concentration of 50 mg/ml and kept at -20° C. Antibiotic discs containing 15 μg pristinamycin or virginiamycin (bioMerieux, ref. 54552; bioMerieux, ref. 54612) were soaked in 1 ml cell culture medium at 4i C for up to 24 h. […] The concentration of individual streptogramin components was calculated based on their fixed 70:30 ratio (w/w; PII/VM1 /dalfopristin: PI/VS1 /quinupristin). […]

[3] = target: T3, TET-responsive system (tTA/PhCMV*-1) (Escherichia coli, UniProt P04483); assay: SEAP reporter assay, CHO-TWIN clones transfected with pMF111 (PhCMV*-1-SEAP); type: cell-based; conditions: for SEAP Production (%): 48 h, no inducer = 100
T3 construct: expressed in transfected cells; host or cells: CHO-K1 clones CHO-TWIN195 and CHO-TWIN1108 (pTWIN1)
Excerpt: as §1, §2, §3, §4, §5

T3 sequence (P04483 whole entry, added parts left off): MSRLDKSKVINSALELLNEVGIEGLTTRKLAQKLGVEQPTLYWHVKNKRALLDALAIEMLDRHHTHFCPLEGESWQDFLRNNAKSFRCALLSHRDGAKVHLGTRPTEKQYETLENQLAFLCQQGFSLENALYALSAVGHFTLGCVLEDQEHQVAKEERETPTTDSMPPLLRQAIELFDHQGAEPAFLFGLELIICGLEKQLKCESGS

For `C[C@H]1c2cccc(O)c2C(O)=C2C(=O)[C@]3(O)C(O)=C(C(N)=O)C(=O)[C@@H](N(C)C)[C@@H]3[C@@H](O)[C@@H]21` [DOX, doxycycline], the activity at 2 µg/mL (PIT/PPIR system [1]; 2 μg/ml) was 77 ± 6.9% and the activity at 10 µg/mL (PIT/PPIR system [1]) was 50.5 ± 7.9%.

For `CC[C@H]1NC(=O)[C@@H](NC(=O)c2ncccc2O)[C@@H](C)OC(=O)[C@H](c2ccccc2)NC(=O)[C@@H]2CC(=O)[C@H](CS[C@@H]3CN4CCC3CC4)CN2C(=O)[C@H](Cc2ccc(N(C)C)cc2)N(C)C(=O)[C@@H]2CCCN2C1=O` (stereo in doubt) [quinupristin], the “Release of Pip from PPTR” value (Pip/PPTR) was “only partial release”.

With `CC1=CC(O)CC(=O)Cc2nc(co2)C(=O)N2CCC=C2C(=O)OC(C(C)C)C(C)C=CC(=O)NCC=C1` (stereo not drawn) [PII, pristinamycin II] the “Downregulation of PIT/PPIR-mediated SEAP expression” value (PIT/PPIR system [2]; CHO-K1, 2 μg/ml) was “did not display any significant repression activity” and the activity at 2 µg/mL (PIT/PPIR system [2]; CHO-K1, inducer 2 μg/ml, assayed 48 hr later, no inducer = 100, read-out: SEAP Production (%)) was 96.3 ± 3.2%.

`CN(C)[C@@H]1C(=O)C(C(N)=O)=C(O)[C@@]2(O)C(=O)C3=C(O)c4c(O)cccc4[C@@](C)(O)[C@H]3C[C@@H]12` [TET, tetracycline] gave an inhibition at 2 µg/mL (PIT/PPIR system [1]; 2 μg/ml, read-out: Repressive effect on the PIT/PPIR system) of 17%, an activity at 2 µg/mL (PIT/PPIR system [1]; 2 μg/ml) of 87.7 ± 1.76% and an activity at 10 µg/mL (PIT/PPIR system [1]) of 57.5 ± 5%. For the same compound, the “Induction factor (IF; ratio of maximal expression level to antibiotic-repressed expression level)” value ([3]; CHO-TWIN195 + pMF111) was 12, the “SEAP Production (%)” value ([3]; CHO-TWIN195 + pMF111) was 8.57 ± 0.37% and the “Induction factor (fold downregulation of SEAP)” value ([3]; CHO-TWIN1108 + pMF111, 2880 min) was 13 fold. For the same compound, the “SEAP Production (%)” value ([3]; CHO-TWIN1108 + pMF111) was 7.56 ± 0.01%.
